One test concerns the target T1, human orexin 2 receptor (Homo sapiens, UniProt O43614).
T1 construct: expressed in transfected cells
T1 sequence (O43614 1-444): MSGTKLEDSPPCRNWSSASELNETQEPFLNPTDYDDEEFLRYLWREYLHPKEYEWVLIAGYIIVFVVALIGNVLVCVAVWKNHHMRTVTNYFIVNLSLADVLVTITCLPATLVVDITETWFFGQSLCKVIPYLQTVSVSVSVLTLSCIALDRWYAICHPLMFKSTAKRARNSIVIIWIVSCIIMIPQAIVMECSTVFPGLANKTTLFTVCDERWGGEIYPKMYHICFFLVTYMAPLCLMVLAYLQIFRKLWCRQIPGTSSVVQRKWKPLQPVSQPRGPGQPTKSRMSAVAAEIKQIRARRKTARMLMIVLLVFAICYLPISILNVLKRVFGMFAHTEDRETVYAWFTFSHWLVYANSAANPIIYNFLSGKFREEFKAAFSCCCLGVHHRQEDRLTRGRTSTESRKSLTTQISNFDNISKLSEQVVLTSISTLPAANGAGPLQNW
Description: Calcium accumulation in cells (FLIPR), antagonism of orexin A, human orexin 2 receptor. It counts as cell-based. The note with it: for Ki: calcium accumulation, antagonism of orexin A, Cheng-Prusoff corrected, read-out: FLIPR hOx2R Ki; for inhibition at 10 µM: measured at a concentration of 10 μM of compound, read-out: FLIPR hOx2R % inhibition. As to the method:
(§1) Calcium Accumulation in Cells (FLIPR):
(§2) Cells expressing human orexin 1 or human orexin 2 receptors, were seeded at 8,000 cells/well in 384 well black-walled clear bottom, poly-D-lysine coated plates. After 24 h, the medium was removed and cells were washed once with phosphate buffered saline and serum-deprived overnight in assay buffer (130 mM NaCl, 5.4 mM KCl, 1.8 mM CaCl2, 0.8 mM MgSO4, 0.9 mM NaH2PO4, 25 mM glucose, 20 mM HEPES, pH 7.4) containing bovine serum albumin (1% w/v).
(§3) On the day of the experiment, the cells seeded in black plates were treated with assay buffer containing the Ca^2+ sensitive fluorescent dye Fluo-4-AM (2 μM), and probenecid (0.1 mM). After 1 h plates were washed twice with, and resuspended in, assay buffer containing probenecid (0.1 mM) using a multi plate washer. The plates were placed into a FLIPR II (Fluorometric Imaging Plate Reader, Molecular Devices, Sunnyvale, Calif., USA) and baseline fluorescence (fluorescence light units, FLU) was measured (5 measurements, 2 S each; laser excitation 488 nm at 0.6-1 W, CCD camera exposure 0.4 s) before addition of buffer alone (basal) or containing test compounds (either compound of formula I alone, agonist alone or agonist in the presence of various concentrations of compounds of formula I). Fluorescence measurements were then continued every 1 S for 120 S followed by every 4 S for 240 S.
(§4) The measurements were typically made in two sequences:
(§5) Compounds of formula I were tested usually in a concentration range from 10^−9 M to 10^−5 M.
(§6) In the second round, performed one hour later (to allow for equilibration), Orexin A was tested either in the absence (calibration curves, Orexin A agonist controls) or in the presence of compounds of formula Ito determine antagonism.
(§7) Inhibition data is expressed in Table 1 as Kd [μM], converted by the Cheng and Prusoff correction (Kd=IC50/1+(L/EC50)), where IC50 is the 50% inhibition value determined in concentration response inhibition curves, EC50 is the half maximal activation concentration determined for orexin A in concentration response curves and L is the concentration of orexin A used in inhibition experiments performed in with a submaximal concentration of orexin A in the presence of up to 8 increasing concentrations of compound of formula I. Inhibition data is also expressed in Table 1 as % inhibition value measured at a concentration of 10 μM of selected compounds of formula I.

The next test deals with T2, human orexin 1 receptor (Homo sapiens, UniProt O43613).
T2 construct: expressed in transfected cells
T2 sequence (O43613 1-425): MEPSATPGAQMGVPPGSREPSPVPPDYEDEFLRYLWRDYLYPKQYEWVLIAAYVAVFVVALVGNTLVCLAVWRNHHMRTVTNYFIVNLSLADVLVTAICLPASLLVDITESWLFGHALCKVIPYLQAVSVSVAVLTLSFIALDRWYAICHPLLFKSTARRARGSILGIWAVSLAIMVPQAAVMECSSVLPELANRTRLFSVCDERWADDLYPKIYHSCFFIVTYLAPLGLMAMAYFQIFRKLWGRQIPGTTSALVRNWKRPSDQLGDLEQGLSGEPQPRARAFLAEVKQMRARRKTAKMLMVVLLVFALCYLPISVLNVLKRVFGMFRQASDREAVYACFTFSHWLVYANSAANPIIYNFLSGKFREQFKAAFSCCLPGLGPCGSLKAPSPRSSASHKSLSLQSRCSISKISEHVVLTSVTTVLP
Description: Calcium accumulation in cells (FLIPR), antagonism of orexin A, human orexin 1 receptor. The conditions noted are these: for inhibition at 10 µM: measured at a concentration of 10 μM of compound, read-out: FLIPR hOx1R % inhibition; for Ki: calcium accumulation, antagonism of orexin A, Cheng-Prusoff corrected, read-out: FLIPR hOx1R Ki. It counts as cell-based. As to the method: as §1, §2, §3, §4, §5, §6, §7

`Cc1cc(C)nc(N2CCC3(CC2)NCCN(Cc2nn(C)cc2-c2cccc(C#N)c2)C3=O)n1` [Example 1.44, 3-(3-((9-(4,6-Dimethylpyrimidin-2-yl)-5-oxo-1,4,9-triazaspiro[5.5]undecan-4-yl)methyl)-1-methyl-1H-pyrazol-4-yl)benzonitrile]: the Ki (commonly the equilibrium dissociation constant of an inhibitor or competing ligand from its target) on human orexin 2 receptor is 1490 nM. Also, at human orexin 1 receptor, the inhibition (commonly the relative decrease from the control value, in per cent) at 10 µM came to 12%.
Take `Cc1cc(C)nc(N2CCC3(CC2)NCCN(Cc2nn(C)cc2-c2ccc(C#N)cc2)C3=O)n1` [Example 1.45, 4-(3-((9-(4,6-Dimethylpyrimidin-2-yl)-5-oxo-1,4,9-triazaspiro[5.5]undecan-4-yl)methyl)-1-methyl-1H-pyrazol-4-yl)benzonitrile]: the figures for the inhibition at 10 µM at human orexin 2 receptor and at human orexin 1 receptor were 45% and 21%, respectively.
The matching figures for `CNC(=O)c1cccc(-c2cn(C)nc2CN2CCNC3(CCN(c4nc(C)cc(C)n4)CC3)C2=O)c1` [Example 1.49, 3-(3-((9-(4,6-Dimethylpyrimidin-2-yl)-5-oxo-1,4,9-triazaspiro[5.5]undecan-4-yl)methyl)-1-methyl-1H-pyrazol-4-yl)-N-methylbenzamide]: 38% and 20%.
Regarding `Cc1cc(C)nc(N2CCC3(CC2)NCCN(Cc2n[nH]c4ccccc24)C3=O)n1` [Example 1.50, 4-((1H-Indazol-3-yl)methyl)-9-(4,6-dimethylpyrimidin-2-yl)-1,4,9-triazaspiro[5.5] undecan-5-one], the results for the inhibition constant (Ki) on human orexin 2 receptor and on human orexin 1 receptor were 86 nM and 1180 nM, respectively.
For the compound `COCc1ccc(-c2cn(C)nc2CN2CCNC3(CCN(c4nc(C)cc(C)n4)CC3)C2=O)cc1` [Example 1.51, 9-(4,6-Dimethyl-pyrimidin-2-yl)-4-((4-(4-(methoxymethyl)phenyl)-1-methyl-1H-pyrazol-3-yl)methyl)-1,4,9-triazaspiro[5.5] undecan-5-one], the Ki on human orexin 2 receptor is 1240 nM. In addition, at human orexin 1 receptor, the inhibition at 10 µM is < 10%.
Consider `COc1cccc(-c2cn(C)nc2CN2CCNC3(CCN(c4nc(C)cc(C)n4)CC3)C2=O)n1` [Example 1.54, 9-(4,6-Dimethyl-pyrimidin-2-yl)-4-((4-(6-methoxypyridin-2-yl)-1-methyl-1H-pyrazol-3-yl)methyl)-1,4,9-triazaspiro[5.5] undecan-5-one], for which the inhibition at 10 µM on human orexin 2 receptor came to 32%; at human orexin 1 receptor, 15%.
As to `Cc1cc(C)nc(N2CCC3(CC2)NCCN(Cc2nn(C)cc2-c2cccc(-n4cccn4)c2)C3=O)n1` [Example 1.57, 4-((4-(3-(1H-Pyrazol-1-yl)phenyl)-1-methyl-1H-pyrazol-3-yl)methyl)-9-(4,6-dimethyl-pyrimidin-2-yl)-1,4,9-triazaspiro[5.5] undecan-5-one], the Ki at human orexin 2 receptor is 175 nM; at human orexin 1 receptor, 2670 nM.
In the case of `Cc1cc(C)nc(N2CCC3(CC2)NCCN(Cc2nn(C)cc2-c2cccc(N(C)C)c2)C3=O)n1` [Example 1.58], the inhibition constant (Ki) on human orexin 2 receptor was determined as 458 nM. The inhibition at 10 µM at human orexin 1 receptor was found to be 17%.
Take `Cc1cc(C)nc(N2CCC3(CC2)NCCN(Cc2nn(C)cc2-c2cccc(-c4nnc(C)o4)c2)C3=O)n1` [Example 1.59, 9-(4,6-Dimethyl-pyrimidin-2-yl)-4-((1-methyl-4-(3-(5-methyl-1,3,4-oxadiazol-2-yl)phenyl)-1H-pyrazol-3-yl)methyl)-1,4,9-triazaspiro[5.5] undecan-5-one]: on human orexin 2 receptor, the Ki was determined as 252 nM. Further, the inhibition at 10 µM at human orexin 1 receptor came out at 37%.
On to `Cc1cc(C)nc(N2CCC3(CC2)NCCN(Cc2nn(C)cc2-c2cccc(-n4nc(C)cc4C)c2)C3=O)n1` [Example 1.60, 4-((4-(3-(3,5-Dimethyl-1H-pyrazol-1-yl)phenyl)-1-methyl-1H-pyrazol-3-yl)methyl)-9-(4,6-dimethylpyrimidin-2-yl)-1,4,9-triazaspiro[5.5] undecan-5-one], for which the inhibition at 10 µM on human orexin 2 receptor is 34%; on human orexin 1 receptor it was 13%.
Turning to `Cc1cc(C)nc(N2CCC3(CC2)NCCN(Cc2nn(C)cc2-c2ccc4c(c2)OCCO4)C3=O)n1` [Example 1.61, 4-((4-(2,3-Dihydro-benzo[b][1,4]dioxin-6-yl)-1-methyl-1H-pyrazol-3-yl)methyl)-9-(4,6-dimethylpyrimidin-2-yl)-1,4,9-triazaspiro[5.5] undecan-5-one], the inhibition constant Ki was 1.8 nM at human orexin 2 receptor and 836 nM on human orexin 1 receptor.
As to `Cc1cc(C)nc(N2CCC3(CC2)NCCN(Cc2ccccc2-c2ncc(C)o2)C3=O)n1` [Example 1.64, 9-(4,6-dimethyl-pyrimidin-2-yl)-4-(2-(5-methyloxazol-2-yl)benzyl)-1,4,9-triazaspiro[5.5] undecan-5-one], the Ki at human orexin 2 receptor amounted to 423 nM. Moreover, the inhibition at 10 µM on human orexin 1 receptor is 32%.
Turning to `COc1nc(C)cc(N2CCC3(CC2)NCCN(Cc2c[nH]c4ccccc24)C3=O)n1` [Example 1.66, 4-((1H-indol-3-yl)methyl)-9-(2-methoxy-6-methyl-pyrimidin-4-yl)-1,4,9-triazaspiro[5.5] undecan-5-one], the Ki stood at 632 nM at human orexin 2 receptor and 3920 nM at human orexin 1 receptor.
As for `Cc1cc(C)nc(N2CCC3(CC2)NCCN(Cc2ccccc2-c2nc(C)no2)C3=O)n1` [Example 1.69, 9-(4,6-dimethyl-pyrimidin-2-yl)-4-(2-(3-methyl-1,2,4-oxadiazol-5-yl)benzyl)-1,4,9-triazaspiro[5.5] undecan-5-one], at human orexin 2 receptor, the Ki turned out to be 235 nM. Further, the inhibition at 10 µM at human orexin 1 receptor was 13%.
With `CCc1cc(-c2nn(C)nc2CN2CCNC3(CCN(c4nc(C)cc(C)n4)CC3)C2=O)ccn1` [Example 1.75, 9-(4,6-dimethyl-pyrimidin-2-yl)-4-((5-(2-ethyl-pyridin-4-yl)-2-methyl-2H-1,2,3-triazol-4-yl)methyl)-1,4,9-triazaspiro[5.5] undecan-5-one], the values for the inhibition at 10 µM on human orexin 2 receptor and at human orexin 1 receptor were 35% and < 10%, respectively.
For `Cc1cc(C)nc(N2CCC3(CC2)NCCN(Cc2nocc2-c2ccccc2)C3=O)n1` [Example 1.81, 9-(4,6-dimethyl-pyrimidin-2-yl)-4-((4-phenyl-isoxazol-3-yl)methyl)-1,4,9-triazaspiro[5.5] undecan-5-one], the Ki on human orexin 2 receptor is 2190 nM. The inhibition at 10 µM on human orexin 1 receptor was found to be 33%.
The like results for `Cc1cc(C)nc(N2CCC3(CC2)NCCN(Cc2conc2-c2ccccc2)C3=O)n1` [Example 1.82, 9-(4,6-dimethyl-pyrimidin-2-yl)-4-((3-phenyl-isoxazol-4-yl)methyl)-1,4,9-triazaspiro[5.5] undecan-5-one] were, in that order, 655 nM and 57%.
For the compound `Cc1cc(C)nc(N2CCC3(CC2)NCCN(Cc2nn(C)nc2-c2ccccc2)C3=O)n1` [Example 1.83, 9-(4,6-dimethyl-pyrimidin-2-yl)-4-((2-methyl-5-phenyl-2H-1,2,3-triazol-4-yl)methyl)-1,4,9-triazaspiro[5.5] undecan-5-one], the Ki on human orexin 2 receptor is 240 nM; on human orexin 1 receptor, 4450 nM.
For `Cc1cc(C)nc(N2CCC3(CC2)OCCN(Cc2ccccc2-c2ccco2)C3=O)n1` [Example 2.3, 9-(4,6-Dimethyl-pyrimidin-2-yl)-4-(2-furan-2-yl-benzyl)-1-oxa-4,9-diaza-spiro[5.5]undecan-5-one], the Ki on human orexin 2 receptor came to 142 nM; on human orexin 1 receptor, 1100 nM.

Values taken from patent US20120165331A1, “Di/tri-aza-spiro-C9-C11alkanes” (priority 2010, published 2012).
